We go through one molecule from paper PMC5893597, “Structural mechanism for nucleotide-driven remodeling of the AAA-ATPase unfoldase in the activated human 26S proteasome” (Nature Communications, 2018).

In this experiment the test system is T1, human 26S proteasome AAA-ATPase heterohexamer (Rpt1-6) in the holoenzyme.
T1 construct: gene PSMC2; endogenous subunits in doubly capped 26S holoenzyme (28-subunit CP, 19-subunit RPs)
The experiment is described as follows: cryo-EM structure. The following applies: 1 mM ATP-γ-S, 1 mM MgCl2, pH 7.5; Walker A nucleotide sites of Rpt subunits. The class given is binding.

With `Nc1ncnc2c1ncn2[C@@H]1O[C@H](COP(=O)(O)OP(=O)(O)OP(O)(O)=S)[C@@H](O)[C@H]1O` [ATP-γ-S], the cryo-EM structure result was “ATP-γ-S was modeled into the nucleotide densities of four Rpt subunits in each state”.
